The text below walks through data of PubChem BioAssay AID351 (ChemBlock, 2006).

Calls of active or inactive are those of the source.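 Rule for the calls: active = compounds that disrupt early egg division and make hatched embryos spin fast in place instead of swimming forward; inactive = the rest.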

The test system of one assay is sea urchin embryo, cleavage alteration, microscopy. In words: sea urchin embryo cleavage alteration, tubulin destabilizer project, whole organism, microscopy (AID 351).
Details: not given
Regarding `COC(=O)c1[nH]c2ccccc2c1NCc1ccncc1`, the threshold concentration is 500 nM.
Regarding `c1cncc(CNc2ccccc2-c2nnc(Nc3ccc4c(c3)OCO4)o2)c1`, the threshold concentration is 1 nM.
The same measure, in the same setting: the same measure for `O=C1c2cccc(O)c2C(=O)c2c(O)cc(CO)cc21`: 20000 nM; for `CCOc1ccc(Nc2nc(-c3c(C)nc4ncccn34)cs2)cc1`: 5 nM; for `O=C(Nc1ccc2c(c1)OCO2)C(=O)c1cn(Cc2ccc(Cl)cc2)c2ccccc12`: 50 nM.
Consider `Nc1c(C(=O)c2ccccc2)sc2nc3c(cc12)CCCC3`, for which the threshold concentration is 20 nM.
Same read-out and setting: for `Nc1cc2c(cc1-c1nnc(Nc3ccc4c(c3)OCO4)o1)OCO2` the value was 50 nM; for `Cc1nc2ncccn2c1-c1csc(Nc2ccc(Cl)cc2)n1`, 100 nM; for `O=C(Nc1ccc2c(c1)OCCO2)C(=O)c1cn(Cc2ccc(Cl)cc2)c2ccccc12`, 100 nM.
For the molecule `COc1cccc(NC(=O)C(=O)c2cn(Cc3ccc(Cl)cc3)c3ccccc23)c1`, the threshold concentration was 4000 nM.
The same measure, in the same setting: the same measure for `COc1ccc(NC(=O)C(=O)c2c[nH]c3ccccc23)cc1`: 1 nM; for `Cc1nc2sccn2c1-c1csc(Nc2ccccc2Cl)n1`: 200 nM.
Turning to `Cc1nc2sccn2c1-c1csc(Nc2ccc(Cl)cc2)n1`, the threshold concentration was 100 nM.
Regarding `COc1ccc(-c2c(-c3ccccc3)noc2N)cc1OC`, the threshold concentration was 500 nM.
Turning to `c1cncc(CNc2ccccc2-c2nnc(Nc3ccc4c(c3)OCCO4)o2)c1`, the threshold concentration is 1 nM.
In the case of `COc1ccc(NC(=O)C(=O)c2cn(Cc3ccc(Cl)cc3)c3ccccc23)cc1`, the threshold concentration was 50 nM.
As for `c1ccc(-c2nnc(Nc3ccc4c(c3)OCCO4)o2)c(NCc2ccns2)c1`, the threshold concentration is 2000 nM.
`Nc1ccccc1-c1nnc(Nc2ccc3c(c2)OCCO3)o1`: the threshold concentration is 1 nM.
On to `c1ccc(-c2nnc(Nc3ccc4c(c3)OCO4)o2)c(NCc2ccncc2)c1`, for which the threshold concentration was 0.5 nM.
Same read-out and setting: the same measure for `COc1cc2c(c(OC)c1OC)-c1ccc(OC)c(=O)cc1C(NC(C)=O)CC2` (centres undefined): 50000 nM.

System in a further assay: not listed separately
The description is as above. The following applies: sea urchin embryo, cleavage alteration, microscopy.
With `COc1ccc(C2=NOC3C4COC(O4)C(=O)C23)cc1` (centres undefined), the outcome is “inactive; up to 5 mM”.
On to `CCOc1cc2c(cc1OCC)C(c1cc(OC)c(OC)c(OC)c1)NCC2` (centres undefined), for which the outcome was “inactive; up to 50 µM”.
As for `c1cnc(-c2nc(-c3ccc4c(c3)OCO4)no2)cn1`, the outcome is “inactive; up to 5 µM”.
The same measure, in the same setting: for `CC(=O)OC1C(=O)C2C(O)CC3OCC3(OC(C)=O)C2C(OC(=O)c2ccccc2)C2(O)CC(OC(=O)C(O)C(NCc3ccccc3)c3ccccc3)C(C)=C1C2(C)C` (centres undefined) the value was “inactive; up to 50 µM”; for `COc1ccc(Cc2nc(-c3nonc3N)no2)cc1OC`, “inactive; up to 100 mM”.
The same measure, in the same setting: the same measure for `Cc1[nH]c2ccc(OC(F)(F)F)cc2c1CCN1C(=O)C2CCCCC2C1=O` (centres undefined): “inactive; up to 10 µM”.
As to `c1cncc(CNc2cn[nH]c2-c2nnc(Nc3ccc4c(c3)OCCO4)o2)c1`, the outcome was “inactive; up to 10 µM”.
As to `NC(=O)c1nscc1NCc1ccncc1`, the outcome is “inactive; up to 5 µM”.
`COc1ccc2[nH]cc(CCNC(=O)C(F)(F)F)c2c1`: the outcome was “inactive; up to 50 µM”.
For the molecule `NC(=O)CCNCc1cccnc1`, the outcome is “inactive; up to 10 µM”.
For the molecule `O=C(Nc1cccc(C(F)(F)F)c1)c1nscc1NCc1ccc2c(c1)OCO2`, the outcome is “inactive; up to 5 µM”.
Take `O=C1c2c(O)cc(O)cc2OC(c2ccc(O)c(O)c2)C1O` (centres undefined): the outcome was “inactive; up to 50 µM”.
In the case of `O=C(Nc1cccnc1Cl)C(=O)c1cn(Cc2ccc(Cl)cc2)c2ccccc12`, the outcome is “inactive; up to 2.5 mM”.
`COc1ccc(-c2nc(Nc3nc(C)cc(C)n3)n[nH]2)cc1OC`: the outcome is “inactive; up to 10 µM”.
In the case of `Nc1cc2c(cc1C(=O)c1ccccc1)OCCO2`, the outcome is “inactive; up to 5 mM”.
In the case of `Nc1nonc1-c1cccnc1`, the outcome is “inactive; up to 100 mM”.
Regarding `NC(=O)c1nscc1NCc1cccnc1`, the outcome was “inactive; up to 50 µM”.
Turning to `O=C(Nc1ccc(Br)cc1)C(=O)c1cn(Cc2ccc(Cl)cc2)c2ccccc12`, the outcome is “inactive; up to 5 mM”.
Consider `O=C(Nc1cccc(F)c1)C(=O)c1cn(Cc2ccc(Cl)cc2)c2ccccc12`, for which the outcome is “inactive; up to 5 mM”.
On the same count and under the same terms, for `COc1ccc(Cc2nn[nH]n2)cc1OC` the value was “inactive; up to 50 µM”.
Take `CS(=O)(=O)c1ccc(Nc2nnc(-c3ccccc3N)o2)cc1`: the outcome is “inactive; up to 5 mM”.
For `COc1cc(-c2nc(-c3ccncc3)no2)cc(OC)c1OC`, the outcome was “inactive; up to 10 µM”.
As for `COc1cc(C(=O)NCCc2c(C)[nH]c3ccc(OC(F)(F)F)cc23)cc(OC)c1OC`, the outcome was “inactive; up to 50 µM”.
In the case of `COc1ccc2[nH]cc(CCN3C(=O)OC(C)(C)C3(C)O)c2c1` (centres undefined), the outcome was “inactive; up to 10 µM”.
As for `COc1ccc(C(=O)c2c(N)nc3n2CCC3)cc1OC`, the outcome is “inactive; up to 5 mM”.
In the case of `COc1ccc2[nH]c(C)c(CCN3C(=O)C4CCCCC4C3=O)c2c1` (centres undefined), the outcome was “inactive; up to 50 µM”.
`COC(=O)c1cc(=O)c(O)c2c(O)c(O)c(OC)cc2c1`: the outcome is “inactive; up to 20 mM”.
Take `Cc1onc(-c2ccccc2Cl)c1C(=O)Nc1cccnc1`: the outcome was “inactive; up to 50 µM”.
As to `Nc1csnc1-c1nnc(Nc2ccc3c(c2)OCO3)o1`, the outcome is “inactive; up to 5 µM”.
For `O=C(Nc1cccc(Cl)c1)C(=O)c1cn(Cc2ccc(Cl)cc2)c2ccccc12`, the outcome is “inactive; up to 5 mM”.
Regarding `Clc1ccc(-c2[nH]c(-c3cccc(C#Cc4ccccc4)c3)nc2-c2ccccc2)cc1`, the outcome is “inactive; up to 5 mM”.
The same measure, in the same setting: the same measure for `Nc1nonc1-c1nc2ccccc2n1Cc1cccc(F)c1`: “inactive; up to 1 mM”.
Regarding `COc1cc2ccnc(-c3c[nH]c4cc(OC)c(OC)cc34)c2cc1OC`, the outcome was “inactive; up to 10 µM”.
Turning to `COc1cc(OC)c2c(c1)OC(c1ccc(OC)c(OC)c1)C(O)C2=O` (centres undefined), the outcome was “inactive; up to 10 µM”.
Turning to `COc1ccc(-c2nn[nH]n2)cc1OC`, the outcome was “inactive; up to 100 µM”.
As to `CCOc1cc2c(cc1OCC)C(c1cc(OC)c(O)c(OC)c1)NCC2` (centres undefined), the outcome is “inactive; up to 50 µM”.
For the molecule `O=C(CC1(O)C(=O)N(Cc2ccc(F)cc2)c2ccccc21)c1ccc2c(c1)OCO2` (centres undefined), the outcome is “inactive; up to 2.5 µM”.
On the same count and under the same terms, for `COc1ccc(-c2csc(Nc3ccccc3OC)n2)cc1Br` the value was “inactive; up to 5 mM”; for `NC(=O)C(=O)c1cn(Cc2ccc(Cl)cc2Cl)c2ccccc12`, “inactive; up to 10 µM”; for `COc1ccc2[nH]cc(CCN)c2c1`, “inactive; up to 50 µM”.
In the case of `Cc1ccc(Nc2nc(-c3c(C)nc4ccccn34)cs2)c(C)c1`, the outcome was “inactive; up to 5 mM”.
In the case of `COc1cc(-c2nnc(Nc3ccc4c(c3)OCO4)o2)cc(OC)c1OC`, the outcome was “inactive; up to 5 µM”.
As to `O=C(Nc1ccc(Cl)cc1)C(=O)c1cn(Cc2ccc(Cl)cc2)c2ccccc12`, the outcome is “inactive; up to 5 mM”.
As for `CCOc1ccc(C2=C3c4cc(OCC)c(OCC)cc4CCN3C(=O)C2=O)cc1OCC`, the outcome was “inactive; up to 50 µM”.
